Source: article PMC8116058, “De novo macrocyclic peptides dissect energy coupling of a heterodimeric ABC transporter by multimode allosteric inhibition” (eLife, 2021)
Positions of bridges follow the written chain, without caps; N, C: chain ends. Non-standard residues stand in square brackets, D forms with d. Residues, ends and D or L forms follow the SMILES beside them. *: point of attachment. 5FAM = O=C1OC2(c3ccc(O)cc3Oc3cc(O)ccc32)c2ccc(C(=O)*)cc21; βAla = NCCC(=O)O

Assays:
[1] = target: T1, TmrAB reconstituted in liposomes (Thermus thermophilus, UniProt Q72J04+Q72J05); test: Filter-based transport assay, CP^Fs tested as substrates; assay type: biochemical; settings: TmrAB 0.4 µM in liposomes, C4F 3 µM or CP^F 1 µM, 5 min 45°C
T1 sequence (Q72J05 1-600): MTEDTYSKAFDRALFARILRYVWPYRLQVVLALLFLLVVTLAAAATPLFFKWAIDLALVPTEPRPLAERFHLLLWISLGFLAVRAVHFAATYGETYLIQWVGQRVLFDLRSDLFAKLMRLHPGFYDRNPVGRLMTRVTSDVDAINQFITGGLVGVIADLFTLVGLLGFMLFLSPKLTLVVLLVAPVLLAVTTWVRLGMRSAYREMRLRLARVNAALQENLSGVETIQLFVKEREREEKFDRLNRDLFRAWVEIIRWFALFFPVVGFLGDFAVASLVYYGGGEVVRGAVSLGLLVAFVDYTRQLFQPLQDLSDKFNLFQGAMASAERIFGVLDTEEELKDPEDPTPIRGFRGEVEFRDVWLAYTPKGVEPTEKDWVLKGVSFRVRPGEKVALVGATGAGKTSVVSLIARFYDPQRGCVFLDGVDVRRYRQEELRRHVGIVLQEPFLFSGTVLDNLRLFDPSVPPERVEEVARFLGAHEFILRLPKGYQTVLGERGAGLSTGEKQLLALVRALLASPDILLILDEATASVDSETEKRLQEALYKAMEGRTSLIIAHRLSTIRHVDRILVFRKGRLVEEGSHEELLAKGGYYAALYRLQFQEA
T1 sequence (Q72J04 1-578): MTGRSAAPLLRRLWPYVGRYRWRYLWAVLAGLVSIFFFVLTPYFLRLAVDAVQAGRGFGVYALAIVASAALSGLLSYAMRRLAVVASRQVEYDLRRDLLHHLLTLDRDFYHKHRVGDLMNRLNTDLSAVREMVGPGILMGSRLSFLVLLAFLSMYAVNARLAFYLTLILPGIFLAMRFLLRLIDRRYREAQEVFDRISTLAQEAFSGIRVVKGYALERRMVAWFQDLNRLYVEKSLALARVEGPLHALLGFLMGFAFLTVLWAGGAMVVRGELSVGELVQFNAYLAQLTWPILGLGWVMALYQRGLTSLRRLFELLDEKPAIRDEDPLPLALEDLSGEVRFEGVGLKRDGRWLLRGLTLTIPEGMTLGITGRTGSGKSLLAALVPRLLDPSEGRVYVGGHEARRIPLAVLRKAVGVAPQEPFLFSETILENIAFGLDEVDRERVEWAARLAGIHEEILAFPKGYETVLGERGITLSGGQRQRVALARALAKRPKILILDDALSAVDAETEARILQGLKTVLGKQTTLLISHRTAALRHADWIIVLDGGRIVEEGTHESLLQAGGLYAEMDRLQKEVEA
Excerpt: (§1) In order to investigate the functional impact of CPs, we examined the effect of the CPs on ATP hydrolysis and substrate transport of TmrAB (Figure 3A). We reconstituted TmrAB in liposomes and first assayed the ATPase activity. […] We next set out to investigate peptide transport by TmrAB using a filter-based transport assay. To investigate whether CPs are recognized as substrates by TmrAB, we added fluorescein-labeled CP^Fs and examined ATP-dependent translocation. In contrast to the linear substrate peptide C4F, none of the CP^Fs were transported by TmrAB (Figure 3C). Next, we examined ATP-dependent transport of C4F peptides in the presence and absence of the different CPs.
(§2) Figure 3. CP^Fs are potent inhibitors of ATP turnover and substrate transport. (A) Experimental scheme of ATP hydrolysis and peptide transport by TmrAB. (B) CP^Fs inhibit ATP hydrolysis. TmrAB in liposomes (100 nM) was incubated with ATP (2 mM, traced with [γ^32P]-ATP), and MgCl2 (5 mM) in the presence and absence of CP^Fs (1 µM) for 10 min at 45°C. Autohydrolysis was determined in the absence of TmrAB, and background turnover was conducted in the presence of EDTA (10 mM). Release of [γ^32P] was quantified by thin layer chromatography. (C) CP^Fs are not transported by TmrAB. TmrAB (0.4 µM) reconstituted in liposomes was incubated with C4F peptide (3 µM) or CP^Fs (1 µM) in the presence of ATP/ADP (3 mM) and MgCl2 (5 mM) for 5 min at 45°C. Since CP^Fs were dissolved in maximal 0.5% (v/v) of DMSO, C4F plus 0.5% DMSO served as control. Proteoliposomes were washed on filter plates, and transported peptides were quantified at λex/em = 485/520 nm. (D) Inhibition of substrate translocation. TmrAB in liposomes (0.4 µM) were incubated with C4F peptide (3 µM), ATP/ADP (3 mM), and MgCl2 (5 mM) in the presence and absence of CP^Fs (1 µM) for 15 min at 45°C. Transported peptides were quantified as described in (C). In (B–C), mean values ± SD (n = 3) are shown. Figure 3—source data 1. Source data for Figure 3.
TmrAB in liposomes (0.4 µM) were incubated with ATP/ADP (3 mM), MgCl2 (5 mM), C4F peptide (3 µM), and CP^Fs (1 µM) for 15 min at 45°C. […] Proteoliposomes were solubilized by adding SDS (1% [v/v]) in transport buffer for 10 min at 20°C. Transported peptides were quantified at λex/em = 485/520 nm using a microplate reader (CLARIOstar, BMG LABTECH).

TmrAB in liposomes = test: ATP hydrolysis assay; assay type: biochemical, Thermus thermophilus; settings: TmrAB in liposomes 100 nM; ATP 2 mM; CP^F 1 µM; 10 min 45°C; without CP 1.49, autohydrolysis 0.62
Excerpt: as §1, §2
TmrAB reconstituted in liposomes (100 nM) were incubated with ATP (2 mM) traced with [γ^32P]-ATP (Hartmann Analytic), ouabain (1 mM), NaN3 (5 mM), EGTA (50 µM), MgCl2 (3 mM), and CP^Fs (1 µM) for 10 min at 45°C. Autohydrolysis and background hydrolysis were examined in the absence of proteoliposomes or the presence of EDTA (10 mM). Samples were spotted onto polyethyleneimine cellulose plates (Merck Millipore), and thin-layer chromatography was performed with 0.8 M LiCl-acetic acid pH 3.2. Plates were developed overnight on Exposure Cassette-K (Bio-Rad) and evaluated on Personal Molecular Imager System (Bio-Rad). Data were recorded in triplicates and the mean values ± SD (n = 3) are shown.

| Compound | Transported peptide ([1]; ADP 3 mM (background)) | Transported peptide ([1]; ATP 3 mM) | ATP hydrolysis (TmrAB in liposomes) |
| --- | --- | --- | --- |
| CC[C@H](C)[C@@H]1NC(=O)[C@H]([C@@H](C)O)NC(=O)[C@H](CC(C)C)NC(=O)[C@H](Cc2c[nH]c3ccccc23)NC(=O)[C@H](Cc2ccccc2)NC(=O)[C@H](CC(N)=O)NC(=O)[C@H](CCC(=O)O)NC(=O)[C@H](CC(C)C)NC(=O)[C@H](CS)NC(=O)[C@H](Cc2c[nH]cn2)NC(=O)[C@H](CO)NC(=O)[C@@H](Cc2ccc(O)cc2)NC(=O)CSC[C@@H](C(=O)NCC(=O)N[C@@H](CO)C(=O)NCCC(=O)NCCC(=O)N[C@@H](CCCNC(=N)N)C(=O)N[C@@H](CCCCNC(=O)c2ccc3c(c2)C(=O)OC32c3ccc(O)cc3Oc3cc(O)ccc32)C(N)=O)NC(=O)[C@H](CC(C)C)NC1=O [CP6] ({CH2CO}-[dY]SHCLENFWLTILCGS[βAla][βAla]RK(5FAM)-NH2; thioether N-14) | 0.38 µmol·g/min | 0.33 µmol·g/min | 0.54 mmol Pi (g*min)^-1 |
| CC(C)[C@@H]1NC(=O)[C@H](Cc2ccccc2)NC(=O)[C@@H]2CCCN2C(=O)[C@H](CC(N)=O)NC(=O)[C@H](Cc2c[nH]c3ccccc23)NC(=O)[C@H](C(C)C)NC(=O)[C@H](Cc2ccc(O)cc2)NC(=O)[C@H](Cc2ccccc2)NC(=O)[C@@H](Cc2ccc(O)cc2)NC(=O)CSC[C@@H](C(=O)NCC(=O)N[C@@H](CO)C(=O)NCCC(=O)NCCC(=O)N[C@@H](CCCNC(=N)N)C(=O)N[C@@H](CCCCNC(=O)c2ccc3c(c2)C(=O)OC32c3ccc(O)cc3Oc3cc(O)ccc32)C(N)=O)NC(=O)[C@H](CCCCN)NC(=O)[C@H](Cc2ccccc2)NC1=O [CP14] ({CH2CO}-[dY]FYVWNPFVFKCGS[βAla][βAla]RK(5FAM)-NH2; thioether N-12; C-terminus assumed) | 0.25 µmol·g/min | 0.26 µmol·g/min | 0.39 mmol Pi (g*min)^-1 |
| CC(C)C[C@@H]1NC(=O)[C@H](Cc2ccccc2)NC(=O)CNC(=O)[C@H](CO)NC(=O)[C@H](Cc2ccccc2)NC(=O)[C@H](CC(=O)O)NC(=O)[C@@H]2CCCN2C(=O)[C@H]([C@@H](C)O)NC(=O)[C@@H](Cc2ccc(O)cc2)NC(=O)CSC[C@@H](C(=O)NCC(=O)N[C@@H](CO)C(=O)NCCC(=O)NCCC(=O)N[C@@H](CCCNC(=N)N)C(=O)N[C@@H](CCCCNC(=O)c2ccc3c(c2)C(=O)OC32c3ccc(O)cc3Oc3cc(O)ccc32)C(N)=O)NC(=O)[C@H](C)NC(=O)[C@H](CC(N)=O)NC(=O)[C@H](CCCNC(=N)N)NC(=O)[C@H](CC(C)C)NC(=O)[C@H](Cc2ccccc2)NC(=O)[C@H](C)NC1=O [CP12] ({CH2CO}-[dY]TPDFSGFLAFLRNACGS[βAla][βAla]RK(5FAM)-NH2; thioether N-16) | 0.55 µmol·g/min | 0.44 µmol·g/min | 0.37 mmol Pi (g*min)^-1 |
| CC[C@H](C)[C@@H]1NC(=O)[C@H](Cc2c[nH]c3ccccc23)NC(=O)[C@H](CC(N)=O)NC(=O)[C@H](C)NC(=O)[C@H](CO)NC(=O)[C@@H]2CCCN2C(=O)[C@H](CC(=O)O)NC(=O)[C@@H](Cc2ccc(O)cc2)NC(=O)CSC[C@@H](C(=O)NCC(=O)N[C@@H](CO)C(=O)NCCC(=O)NCCC(=O)N[C@@H](CCCNC(=N)N)C(=O)N[C@@H](CCCCNC(=O)c2ccc3c(c2)C(=O)OC32c3ccc(O)cc3Oc3cc(O)ccc32)C(N)=O)NC(=O)[C@H]([C@@H](C)O)NC(=O)[C@H](CC(C)C)NC(=O)[C@H](CC(C)C)NC(=O)[C@H](C(C)C)NC(=O)[C@H](CC(C)C)NC1=O [CP13] ({CH2CO}-[dY]DPSANWILVLLTCGS[βAla][βAla]RK(5FAM)-NH2; thioether N-14; C-terminus assumed) | 0.28 µmol·g/min | 0.33 µmol·g/min | 0.39 mmol Pi (g*min)^-1 |
